# Read-outs that look alike come from different tables or passages of the source.
# Test system: Xenopus embryos
# Conditions: for Type of edema Ventral: ‡ = edemas also detected in the gut; for Type of edema Periocular: * = causing bulging eyes, # = bilateral, causing narrow-set eyes
# Protocol: 10-μl aliquots of the chemicals were transferred from the mother plates with a liquid handling robot (Aquarius, Tecan) into 96-well tissue culture plates to generate diluted stock plates (2 mM in DMSO; 50 μl final volume). […] Once embryos reached stage 31 (37 hpf), 10-μl aliquots of the diluted chemicals were added to the wells. […] Negative control wells contained embryos in screening medium and 0.1×MMR only. Embryos were treated with the chemicals in a humidified incubator at 23° C. over a timeframe of 4 days. Embryos were manually scored for the presence of edema or other morphological phenotypes using a teaching dissecting microscope (SV6; Carl Zeiss). Two investigators performed separately the scoring daily at stages 39 (56 hpf), 41 (76 hpf), 45 (98 hpf), and 47 (120 hpf). Dead embryos were removed and 100 μl of water was added daily to each well to compensate for fluid evaporation. […] For imaging at the end of the experiments. Xenopus tadpoles were anesthetized with 0.05% tricaine (Sigma #A5040) in 0.1×MMR. Images were captured using a stereomicroscope (SteREO Lumar V12; Carl Zeiss) equipped with a digital camera (AxioCam Color; Carl Zeiss).
# Xenopus late tailbud embryos at stage 31 (37 hpf) were selected for compound treatment. […] Embryos were arrayed into 48-well dishes (five per well) and treated with test compounds at a concentration of 20 μM in the presence of 1% DMSO. […] All 48-well dishes also contained replicates of negative controls (1% DMSO). Embryos were monitored daily over a period of four days for edema formation. In addition, drug-induced lethality and other externally visible phenotypes were scored. On average, 320 compounds were screened per week.
# [1] = compounds causing cytotoxicity, 20 μM, 1% DMSO, treatment from stage 31, Nieuwkoop & Faber stage
# [2] = compounds causing edema, 20 μM, 1% DMSO, treatment from stage 31, scored to stage 47
# [3] = embryonic stage, — = no stage of lethality given
# [4] = onset of edema, 20 μM, 1% DMSO, treatment from stage 31, Nieuwkoop & Faber stage
# [5] = compounds causing lethality, 20 μM, 1% DMSO, treatment from stage 31, Nieuwkoop & Faber stage
smiles,measurement,setting,value
O=C1NCN(c2ccccc2)C12CCN(CCCC(c1ccc(F)cc1)c1ccc(F)cc1)CC2 [Fluspirilene],Lethality (NF),[1],32 NF
C=C[C@@]1(C)CC(=O)[C@]2(O)[C@@]3(C)[C@@H](O)CCC(C)(C)[C@@H]3[C@H](O)[C@H](OC(C)=O)[C@@]2(C)O1 [Forskolin],Lethality (NF),[2],41/42
same,Type of edema Pericordial,embryonic stage,39 embryonic stages according to Nieuwkoop and Faber (NF)
same,Type of edema Proctodeal,embryonic stage,39 embryonic stages according to Nieuwkoop and Faber (NF)
same,Lethality,[3],41/42
same,Type of edema Ventral,embryonic stage,39 embryonic stages according to Nieuwkoop and Faber (NF)
same,Onset (NF),[4],39/40
"Cl.Cl.Fc1ccc(C(OCCN2CCN(CCCc3ccccc3)CC2)c2ccc(F)cc2)cc1 [GBR-12909 dihydrochloride, 1-[2-[bis(4-Fluorophenyl)methoxy]ethyl]-4-[3-phenylpropyl]piperazine dihydrochloride]",Type of edema Pronephric,embryonic stage,45 embryonic stages according to Nieuwkoop and Faber (NF)
same,Type of edema Periocular,embryonic stage,45 embryonic stages according to Nieuwkoop and Faber (NF)
same,Type of edema Ventral,embryonic stage,45 embryonic stages according to Nieuwkoop and Faber (NF)
CC(C)(Sc1ccc(CCN(CCCCC2CCCCC2)C(=O)NC2CCCCC2)cc1)C(=O)O [GW7647],Lethality (NF),[1],32 NF
O=C1Cc2c([nH]c3ccc(Br)cc23)-c2ccccc2N1 [Kenpaullone],Type of edema Periocular,embryonic stage,45 embryonic stages according to Nieuwkoop and Faber (NF)
same,Type of edema Ventral,embryonic stage,45 embryonic stages according to Nieuwkoop and Faber (NF)
"Cc1c(CC(C)(C)C(=O)O)n(Cc2ccc(Cl)cc2)c2ccc(F)cc12 [L-655,240, 3-[1-(4-Chlorobenzyl)-5-fluoro-3-methyl-indol-2-yl]-2,2-dirriethyl propanoic acid]",Lethality (NF),[1],32 NF
"COc1cc2nc(N3CCN(C(=O)OCc4ccccc4)[C@H](C(=O)NC(C)(C)C)C3)nc(N)c2cc1OC [L-765,314, (2S)-4-(4-Amino-6,7-dimethoxy-2-quinazolinyl)-2-[[(1,1-Dimethylethyl)amino]carbonyl]-1-piperazinecarboxylic acid, phenylmethyl ester]",Type of edema Periocular,embryonic stage,41/42 #
same,Type of edema Ventral,embryonic stage,45 embryonic stages according to Nieuwkoop and Faber (NF)
same,Onset (NF),[4],41/42
"CCCCCCCCCCCCCCCCOC[C@H](COCC(F)(F)F)OP(=O)(O)OC.[Li] [MJ33, 1-Hexadecyl-3-(trifluoroethyl)-sn-glycero-2-phosphomethanol lithium]",Lethality (NF),[1],32 NF
"Cc1ccc(Cl)c(Nc2ccccc2C(=O)O)c1Cl.[Na] [Meclofenamic acid sodium, 2-([2,6-Dichloro-3-methylphenyl]amino)benzoic acid sodium]",Lethality (NF),[2],41/42
same,Type of edema Pericordial,embryonic stage,35/36
same,Lethality,[3],41/42
same,Onset (NF),[4],35/36
Cl.O=C(CCCN1CCC2(CC1)C(=O)N(CCc1ccc(N=C=S)cc1)CN2c1ccccc1)c1ccc(F)cc1 [N-(p-Isothiocyanatophenethyl)spiperone hydrochloride],Type of edema Periocular,embryonic stage,45 embryonic stages according to Nieuwkoop and Faber (NF)
same,Type of edema Ventral,embryonic stage,45 embryonic stages according to Nieuwkoop and Faber (NF)
same,Onset (NF),[4],45 NF
CCCCCCCC/C=C\CCCCCCCC(=O)NCCc1ccc(O)c(O)c1 [N-Oleoyldopamine],Lethality (NF),[5],41 NF
COC(=O)C1=C(C)NC(C)=C(C(=O)OC)C1c1ccccc1[N+](=O)[O-] [Nifedipine],Type of edema Pericordial,embryonic stage,41/42
same,Type of edema Periocular,embryonic stage,41/42
same,Type of edema Ventral,embryonic stage,45 embryonic stages according to Nieuwkoop and Faber (NF)
same,Onset (NF),[4],41/42
"COCCOC(=O)C1=C(C)NC(C)=C(C(=O)OC(C)C)C1c1cccc([N+](=O)[O-])c1 (centres unmarked) [Nimodipine, 1,4-Dihydro-2,6-dimethyl-4-(3-nitrophenyl)-3,5-pyridinecarboxylic acid 2-methoxyethyl 1-methylethyl ester]",Lethality,"Xenopus laevis, in vivo",41/42
same,Lethality (NF),"Xenopus laevis, in vivo",41/42
same,Type of edema Pericordial,embryonic stage,41/42
same,Onset (NF),[4],41/42
"CCOC(=O)C1=C(C)NC(C)=C(C(=O)OC)C1c1cccc([N+](=O)[O-])c1 (centres unmarked) [Nitrendipine, 1,4-Dihydro-2,6-dimethyl-4-(3-nitrophenyl)-3,5-pyridinecarboxylic acid ethyl methyl ester]",Lethality (NF),[5],45 NF
CCCCCCCCCCCCCC(=O)O[C@@H]1[C@@H](C)[C@@]2(O)[C@@H](C=C(CO)C[C@]3(O)C(=O)C(C)=C[C@@H]23)[C@@H]2C(C)(C)[C@]12OC(C)=O [Phorbol 12-myristate 13-acetate],Lethality (NF),[1],32 NF
O=c1[nH]c2ccccc2n1C1CCN(CCCC(c2ccc(F)cc2)c2ccc(F)cc2)CC1 [Pimozide],Lethality (NF),[2],45 NF
same,Type of edema Pericordial,embryonic stage,41/42
same,Type of edema Pronephric,embryonic stage,41/42
same,Lethality,[3],45 embryonic stages according to Nieuwkoop and Faber (NF)
same,Type of edema Ventral,embryonic stage,41/42
same,Onset (NF),[4],41/42
Br.C=CCN1CCc2cccc3c2[C@H]1Cc1ccc(O)c(O)c1-3 [R(-)-N-Allylnorapomorphine hydrobromide],Lethality (NF),"compounds causing pigmentation defects, 20 μM, scored to stage 47",40 NF
same,Onset (NF),"onset of pigmentation defects, 20 μM, 1% DMSO",33/34
"Nc1nc2ccc(OC(F)(F)F)cc2s1 [Riluzole, 2-Amino-6-(trifluoromethoxy)-benzothiazole]",Type of edema Pronephric,embryonic stage,45 embryonic stages according to Nieuwkoop and Faber (NF)
same,Type of edema Periocular,embryonic stage,45 embryonic stages according to Nieuwkoop and Faber (NF)
same,Type of edema Ventral,embryonic stage,45 embryonic stages according to Nieuwkoop and Faber (NF)
Cc1nc2sccn2c(=O)c1CCN1CCC(=C(c2ccc(F)cc2)c2ccc(F)cc2)CC1 [Ritanserin],Type of edema Pronephric,embryonic stage,45 embryonic stages according to Nieuwkoop and Faber (NF)
same,Type of edema Periocular,embryonic stage,41/42
same,Type of edema Ventral,embryonic stage,41/42
same,Onset (NF),[4],41/42
"O=C(c1cc(O)c(O)c([N+](=O)[O-])c1)c1ccccc1F [Ro 41-0960, 2′-Fluoro-3,4-dihydroxy-5-nitrobenzophenone]",Lethality (NF),[1],33/34
C=C(C)[C@H]1Cc2c(ccc3c2O[C@@H]2COc4cc(OC)c(OC)cc4[C@@H]2C3=O)O1 [Rotenone],Lethality (NF),[1],32 NF
CC(=O)c1c(O)c(C)c(O)c(Cc2c(O)c3c(c(C(=O)/C=C/c4ccccc4)c2O)OC(C)(C)C=C3)c1O [Rottlerin],Lethality (NF),[1],32 NF
"CC#CCOC(=O)c1c(C)nc2sc3c(c2c1N)CCC(O)C3 (centres unmarked) [SB 205384, 4-Amino-7-hydroxy-2-methyl-5,6,7,8-tetrahydrobenzo[b]thieno[2,3-b]pyridine-3-carboxylic acid but-2-ynyl ester]",Lethality (NF),"compounds causing other phenotypic defects, 20 μM, scored to stage 47",46 NF
same,Onset (NF),"onset of other phenotypic defects, 20 μM, 1% DMSO",40 NF
"COc1ccc(CCCOC(Cn2ccnc2)c2ccc(OC)cc2)cc1.Cl (stereo not drawn) [SKF 96365, 1-(beta-[3-(4-Methoxyphenyl)propoxy]-4-methoxyphenethyl)-1H-imidazole hydrochloride]",Lethality (NF),[2],41/42
same,Type of edema Pericordial,embryonic stage,39 embryonic stages according to Nieuwkoop and Faber (NF)
same,Type of edema Proctodeal,embryonic stage,40 embryonic stages according to Nieuwkoop and Faber (NF)
same,Lethality,[3],41/42
same,Type of edema Ventral,embryonic stage,40 embryonic stages according to Nieuwkoop and Faber (NF)
"O=C(O)c1ccccc1Nc1cccc(OCc2ccc3ccccc3n2)c1 [SR 2640, 2-[[3-(2-Quinolinylmethoxy)phenyl]amino]-benzoic acid]",Lethality (NF),[1],32 NF
"C[n+]1cc2c3c(ccc2c2ccc4cc5c(cc4c21)OCO5)OCO3.[Cl-] [Sanguinarine chloride, 13-Methyl-[1,3]benzodioxolo[5,6-c]-1,3-dioxolo[4,5-i]phenanthridinium chloride]",Lethality (NF),[1],32 NF
"CCN1/C(=C/C(C)=O)Sc2ccc(OC)cc21 [TG003, (Z)-1-(3-Ethyl-5-methoxy-2,3-dihydrobenzothiazol-2-ylidene)-propan-2-one]",Lethality (NF),[5],40 NF
C/C(=C\c1ccc(C(=O)O)cc1)c1ccc2c(c1)C(C)(C)CCC2(C)C [TTNPB],Lethality (NF),[2],45 NF
same,Type of edema Proctodeal,embryonic stage,41/42
same,Type of edema Pronephric,embryonic stage,39 embryonic stages according to Nieuwkoop and Faber (NF)
same,Type of edema Cerebral,"embryonic stage, + = cerebral edema extending dorso-anteriorly and displacing the eyes",41/42+
same,Lethality,[3],45 embryonic stages according to Nieuwkoop and Faber (NF)
same,Type of edema Ventral,embryonic stage,41/42
same,Onset (NF),[4],39 NF
C/C=C(/C)C(=O)O[C@H]1C(C)=C2[C@H]([C@@H]1OC(=O)CCCCCCC)[C@@](C)(OC(C)=O)C[C@H](OC(=O)CCC)[C@@]1(O)[C@H]2OC(=O)[C@@]1(C)O [Thapsigargin],Lethality (NF),[1],32 NF
"CC(C)(C)c1cc(C=C(C#N)C#N)cc(C(C)(C)C)c1O [Tyrphostin A9, [[3,5-bis(1,1-Dimethylethyl)-4-hydroxyphenyl]methylene]-propanedinitrile]",Lethality (NF),[1],32 NF
"CC(C)(C)c1cc(C=C(C#N)C(N)=S)cc(C(C)(C)C)c1O [Tyrphostin AG 879, alpha-cyano-(3,5-di-t-butyl-4-hydroxy)thiocinnamide]",Lethality (NF),[1],32 NF

# From patent publication US9945845B2, “Methods of screening using amphibians” (priority 2009, dated 2018)
